According to patent US20030105082A1, “Methods for improving the therapeutic response of humans having major depression and carrying the gene for apolipoprotein E4” (priority 2001, published 2003):

What was measured:
[1] = 8-week comparison of paroxetine and mirtazapine: plasma drug concentrations by apoE genotype
Experimental: (§1) A multi-center, randomized, double-blind, 8-week comparison of paroxetine and mirtazapine was performed for 246 nondemented, cognitively intact patients 65 years of age and older with major depression. All patients were genotyped at the apoE locus as discussed further below.
(§2) After an initial evaluation period, the mirtazapine patients started with a 15 mg dose per day. After two weeks of treatment (Day 14), patients' dosages were raised to 30 mg per day. […] Subjects who rate “Much Improved” or “Very Much Improved” on the CGI Scale I continued on the same dose they were receiving during the previous week.
(§3) For paroxetine, the dosing system was the same, except that the starting dosage was 20 mg per day, raised to 30 mg per day, and to a maximum of 40 mg per day.
(§4) To screen patients for the gene, genomic DNA was extracted from EDTA-treated whole blood using the Puregene DNA extraction kit (available from Gentra Systems). ApoE genotypes were determined using restriction isotyping (restriction enzyme isoform genotyping) according to the protocol of Hixson and Vernier (J. Lipid Res. 31:545-548,1990), as set forth in Murphy, G.E. et al., Am. J. Psychiatr. 154:603-608, 1997. Genotypes were determined by two observers blind as to the clinical or neuropathological diagnosis.

[2] = tested on: patients 65 years of age and older with major depression; experiment: 8-week double-blind comparison of paroxetine and mirtazapine: Clinical Global Impression Scale (CGI); type: in vivo, human; details: day 14; for CGI scores, ε4 carriers compared with noncarriers: mirtazapine p=0.028; for CGI scores, ε4 carriers compared with those without ε4: treatment x genotype interaction p=0.029
Description: Clinical Global Impression Scale (CGI) (Guy, W., ECDEU Assessment Manual for Psychopharmacology, DHEW Publication No. (ADM) 76-338, rev. 1976). The CGI scale is a global 7-point rating of the severity of the illness taking into account the preceding week (CGI-Severity) and a global 7-point rating of the clinical status of the subject since baseline (CGI-Change). A responder is defined as being “Much Improved” or “Very Much Improved”— having a CGI score of […] 2 according to CGI-Change. Thus, a higher CGI-Severity score corresponds to more severe depression whereas a higher CGI-Change score corresponds to lessened depression, or an improvement in alleviating the symptoms of depression.
(§5) All statistical analyses were performed using the SAS software package (available from SAS Institute). For clinical measures of depression (HDRS-21, HDRS-17, GDS, and CGI), analyses of covariance were performed with baseline values as the covariate, and apoE genotype ([…]4 allele carrier vs. non-carrier) and medication (mirtazapine, paroxetine) as the predictors. For remitter and responder analyses of clinical measures of depression, Cochran-Mantel-Haenszel statistics were used. For comparison of medication and genotype groups on baseline demographic measures, two-way analyses of variance were used.

[3] = tested on: patients 65 years of age and older with major depression; experiment: 8-week double-blind comparison of paroxetine and mirtazapine: Hamilton Depression Rating Scale (HDRS-17, HDRS-21); type: in vivo, human; details: for HDRS-21 scores, ε4 carriers compared with those without ε4: treatment x genotype interaction p=0.033; for HDRS-17 scores, ε4 carriers compared with those without ε4: treatment x genotype interaction p=0.036; for antidepressant response / onset of action, mirtazapine vs paroxetine / early antidepressant response, ε4 carriers compared with non-ε4 carriers: early weeks of treatment, summary of the example
Description: Hamilton Depression Rating Scale (HDRS; 17 and 21 item versions of a structured interview) (Hamilton, M., J. Neurol. Neurosurg. Psychiatr. 23:56-62, 1960; Hamilton, M., Br. J. Soc. Clin. Psychol. 6:278-296,1967). […] In other words, a lower rating in the HDRS scale signifies less depression. In contrast, HDRS remitters, which are those patients showing the least depression, are defined as subjects who have an HDRS-17 score of less than 7 at a post-baseline visit.
as §5

[4] = tested on: patients 65 years of age and older with major depression; experiment: 8-week double-blind comparison of paroxetine and mirtazapine: Mini Mental State Examination (MMSE), cognition; type: in vivo, human; details: for mean MMSE score, ε4 carriers compared with noncarriers: week 8, full cohort, paroxetine p=0.018
Experimental: as §1, §2, §3
Mini Mental State Examination (MMSE) (Folstein, M.F. et al., J. Psychiatr. Res. 12:189-198, 1975). This test represents a brief standardized method to grade cognitive mental status. The test assesses orientation, attention, immediate and short-term recall, language, and the ability to follow verbal and written commands. The lower the score, the lower the cognitive mental status.
as §5

[5] = tested on: patients 65 years of age and older with major depression; experiment: 8-week double-blind comparison of paroxetine and mirtazapine: Geriatric Depression Scale (GDS); type: in vivo, human; details: for GDS scores, ε4 carriers compared with noncarriers / GDS scores, ε4 carriers compared with those without ε4 / 50% reduction in GDS score (GDS 50% responders), ε4 carriers compared with those without ε4: day 14; for GDS scores, ε4 carriers compared with noncarriers: mirtazapine p=0.025; for GDS scores, ε4 carriers compared with those without ε4 / 50% reduction in GDS score (GDS 50% responders), ε4 carriers compared with those without ε4 / 50% reduction in GDS score, ε4 carriers compared with noncarriers: full cohort; for GDS scores, ε4 carriers compared with those without ε4: mirtazapine p=0.021; for 50% reduction in GDS score (GDS 50% responders), ε4 carriers compared with those without ε4: mirtazapine p=0.046; for 50% reduction in GDS score, ε4 carriers compared with noncarriers: mirtazapine p<0.005
Experimental: Geriatric Depression Scale (GDS) (Yesavage, J.A. et al., J. Psychiatr. Res. 17:37-49, 1983), a self-rating scale developed specifically for rating depression in the elderly. In the GDS, a lower rating signifies less depression. GDS 50% responders are defined as subjects with a decrease on a post-baseline assessment of at least 50% as compared to baseline.
as §5

[6] = 8-week comparison of paroxetine and mirtazapine: discontinuation due to adverse events by apoE genotype
Experimental: as §1, §2, §3, §4

[7] = day 14, Caucasian patients, p=0.006
[8] = day 14, patients carrying an apoE ε4 allele
[9] = day 14, patients with an apoE ε4 allele, remitter = HDRS-17 score less than 7
[10] = day 14, patients without an apoE ε4 allele

SMILES | CGI scores, ε4 carriers compared with noncarriers ([2]; Caucasian patients) | CGI scores, ε4 carriers compared with those without ε4 ([2]; full cohort) | HDRS scores, ε4 carriers compared with noncarriers ([3]; day 14, Caucasian patients) | HDRS-21 scores, ε4 carriers compared with those without ε4 ([3]; day 14, full cohort) | HDRS-17 scores, ε4 carriers compared with those without ε4 ([3]; day 14, full cohort) | HDRS-21 50% responders [3, 8] | HDRS-17 remitters [3, 9] | HDRS-21 50% responders [3, 10] [%] | antidepressant response / onset of action, mirtazapine vs paroxetine [3] | early antidepressant response, ε4 carriers compared with non-ε4 carriers [3] | mean MMSE score, ε4 carriers compared with noncarriers [4] | GDS scores, ε4 carriers compared with noncarriers ([5]; Caucasian patients) | GDS scores, ε4 carriers compared with those without ε4 [5] | 50% reduction in GDS score (GDS 50% responders), ε4 carriers compared with those without ε4 [5] | 50% reduction in GDS score, ε4 carriers compared with noncarriers ([5]; day 28) | number of patients who discontinued due to adverse events, ε4 carriers vs noncarriers ([6]; full cohort) | further results
CN1CCN2c3ncccc3Cc3ccccc3C2C1 (stereo not shown) [mirtazapine, 1,2,3,4,10,14b-hexahydro-2-methylpyrazino [2,1a]pyrido[2,3-c]benzazepine] | significantly better | significantly lower scores | greater improvement | significantly lower scores | significantly lower scores | 48% | 28% | 29.4 | higher rate of antidepressant response | significantly stronger | no effect | significantly lower | large decrease in GDS scores | significantly more likely | significantly more | no significant differences | plasma drug concentrations, ε4 carriers vs non-ε4 carriers ([1]; in vivo): no differences; CGI scores, mirtazapine vs paroxetine treated subjects ([2]; Caucasian patients, p=0.037): significantly better; improvement in CGI scores, mirtazapine-treated vs paroxetine-treated patients ([2]; full cohort): Significantly greater improvement; improvement in HDRS-17 scores, mirtazapine-treated vs paroxetine-treated patients ([3]; day 7, full cohort): significantly greater improvement; mean HDRS-17 scores, mirtazapine vs paroxetine [3, 7]: significantly lower; mean HDRS-21 scores, mirtazapine vs paroxetine [3, 7]: significantly lower; percentage of ε4 carriers responding to medication treatment, mirtazapine vs paroxetine ([3]; day 14, Caucasian subjects, each of 50% reduction in HDRS-17, HDRS-21, HDRS-17 remission, 50% reduction in GDS): greater; improvement in HDRS-17 scores, mirtazapine-treated vs paroxetine-treated patients ([3]; day 14, full cohort): Significantly greater improvement; improvement in HDRS-21 scores, mirtazapine-treated vs paroxetine-treated patients ([3]; day 14, full cohort): Significantly greater improvement; HDRS-17 50% responders, ε4 carriers compared with those without ε4 ([3]; day 14, p=0.049): significantly more; HDRS-17 remitters [3, 10]: 7.1%; patients showing a 50% reduction in GDS score ([5]; day 28, Caucasian patients, noncarriers): 16.9%; patients showing a 50% reduction in GDS score ([5]; day 28, Caucasian patients, ε4 carriers): 41.7%; number of patients who discontinued due to adverse events, ε4 carriers vs noncarriers ([6]; in vivo): no significant differences
Fc1ccc([C@@H]2CCNC[C@H]2COc2ccc3c(c2)OCO3)cc1 [paroxetine] | no differences | higher scores | less improvement | higher scores | higher scores | none | none | 23.3 | slower onset of anti-depressant action | particularly slow to respond | significantly lower | no effect | no significant difference | no difference | no effect of apoE genotype | no significant differences | plasma drug concentrations, ε4 carriers vs non-ε4 carriers ([1]; Caucasian subjects): no differences; plasma drug concentrations, ε4 carriers vs non-ε4 carriers ([1]; full cohort): no differences; patients showing a 50% decrease in HDRS-17 score over baseline (HDRS-17 50% responders) ([3]; day 14, patients with an apoE ε4 allele): none; MMSE score, ε4 carriers compared with those without ε4 ([4]; Caucasian subjects, trend, p=0.05): lower MMSE score; effect of the ε4 genotype on the number of patients showing a 50% reduction in GDS ([5]; day 28, Caucasian patients): no significant effect; number of patients who discontinued due to adverse events, ε4 carriers vs noncarriers ([6]; Caucasian subjects): no significant differences
